# Results as given in patent US7919620B2, “Agent for suppressing blood pressure elevation” (Coral Biotech Kabushiki Kaisha, priority 2005, dated 2011).
# Marks after values point to notes of the source that are not given here.
# Tests used:
# Type in all cases: in vivo, rat
# [1] = system: spontaneously hypertensive rats (SHRs); assay: Animal Experiment 1 (Example 1): systolic pressure of SHRs given sea water- or Si-added feed; settings: for Systolic pressure of SHRs: mean ± SD
# Text: In the following examples, spontaneously hypertensive rats (SHRs) were used as experimental animals. The antihypertensive effect of deep sea water was examined by comparison with tap water and surface sea water. […] The samples of the sea water used in the examples were collected by the Deep Seawater Laboratory of Okinawa at a point 3 kilometers off the coast of Kumejima island at depths of 612 m (deep sea water) and 15 m (surface sea water).
# (§1) Seven-week-old male SHRs were divided into 5 groups of 6 to 7 animals. Following 1 week of acclimatization, each group was allowed to feed freely on semi-solid feed for 7 to 8 weeks. The feed given was prepared by adding 40 wt % moisture to powdered feed. To ensure that each SHR would develop hypertension, 1 wt % salt was added to the feed. The animals were allowed to freely drink tap water. Over the course of the test period, each animal was weighed and the feed consumption was measured. Blood pressure was taken from the tail vein every four days between 4 PM and 6 PM. After a 12-hour fasting period, the animals were sacrificed. Serum, liver, and kidney were weighed and subjected to analyses.
# (§2) The sea water added was NaCl-removed deep sea water (DW) or NaCl-removed surface sea water (SW) prepared by dialyzation through an electrodialyzer (Asahi Kasei) until the conductivity of monovalent ions was decreased to 10 mS/cm.
# (§3) The Si concentration in the semi-solid feed containing 40% moisture is defined as the amount of Si contained in 1 kg of the feed.
# [2] = Animal Experiment 1 (Example 1): NaCl, water and feed consumption and body weight of SHRs
# Method: as §1, §2, §3
# [3] = system: spontaneously hypertensive rats (SHRs); assay: Animal Experiment 2 (Example 2): systolic pressure of SHRs given sea water- or Si-added feed; settings: for Systolic pressure of SHRs: mean ± SD
# Method: (§4) Twenty-five 7-week-old male SHRs were divided into 5 groups of 5 animals. Four times as much Si as used in Example 1 was added to the feed given to the rats. Otherwise, the animals were tested under the same conditions as in Example 1. Two types of sea water were added to the powder feed: sea water subjected to NaCl-removing treatment by electrical dialysis and ion-exchanged water. The semi-solid feed containing 1.4 wt % NaCl and 40% moisture was prepared by adding the sea water to powdered feed.
# [4] = Animal Experiment 2 (Example 2): NaCl, water and feed consumption and body weight of SHRs
# Method: as §4
compound,measurement,setting,value
"O.O.O.O.O.O.O.O.O.O=[Si]([O-])[O-].[Na+].[Na+] [Si, sodium metasilicate nonahydrate]",Systolic pressure of SHRs,[1]; age 7 W,151.4 ± 9.8 mmHg
same,Systolic pressure of SHRs,[1]; age 8 W,163.6 ± 7.7 mmHg
same,Systolic pressure of SHRs,[1]; age 9 W,165.1 ± 9.2 mmHg
same,Systolic pressure of SHRs,[1]; age 10 W,173.7 ± 12.2 mmHg
same,Systolic pressure of SHRs,[1]; age 11 W,184.4 ± 11.2 mmHg
same,Systolic pressure of SHRs,[1]; age 12 W,188.4 ± 10.7 mmHg
same,Systolic pressure of SHRs,[1]; age 13 W,194.1 ± 10.4 mmHg
same,Systolic pressure of SHRs,[1]; age 14 W,193.8 ± 11.3*^1 mmHg
same,Difference in magnitude of blood pressure elevation vs control group,"[1]; age 14 weeks (week 6 of treatment), p<0.05",about 15 mmHg
same,Systolic pressure of SHRs,[1]; age 15 W,195.2 ± 9.8*^2 mmHg
same,Antihypertensive effect (blood pressure suppression vs control),[1]; end of test period (15 weeks old),approximately 23 mmHg
same,Body weight,[2]; 8 weeks,185.0 ± 12.2 g
same,"Body weight, % of Control",[2]; 8 weeks,[98.2%]
same,Body weight,[2]; 15 weeks,287.7 ± 14.7 g
same,"Body weight, % of Control",[2]; 15 weeks,[95.7%]
same,Systolic pressure of SHRs,[3]; age 7 W,157 ± 8 mmHg
same,Systolic pressure of SHRs,[3]; age 8 W,166 ± 12 mmHg
same,Systolic pressure of SHRs,[3]; age 9 W,168 ± 4 mmHg
same,Systolic pressure of SHRs,[3]; age 10 W,167 ± 7 mmHg
same,Systolic pressure of SHRs,[3]; age 11 W,172 ± 7 mmHg
same,Systolic pressure of SHRs,[3]; age 12 W,179 ± 4 mmHg
same,Systolic pressure of SHRs,[3]; age 13 W,179 ± 1*^1 mmHg
same,Systolic pressure of SHRs,[3]; age 14 W,181 ± 3*^1 mmHg
same,Antihypertensive effect (difference in systolic pressure from the control),"[3]; end of test period (14 weeks old), p<0.05",approximately 10 mmHg
same,Body weight,[4]; 8 week,200.3 ± 15.3 g
same,"Body weight, % of Control",[4]; 8 week,[97.6%]
same,Body weight,[4]; 14 week,303.4 ± 22.6 g
same,"Body weight, % of Control",[4]; 14 week,[102.4%]
